How the values were obtained:
Assay in all cases: greenhouse post-emergence herbicidal test
Type in all cases: in vivo
Conditions in all cases: application rates of 0.25 or 0.125 kg/ha
[1] = test system: Pharbitis purpurea
Text: (§1) The seeds of the test plants were sown separately for each species. For the post-emergence treatment, the test plants were first grown to a height of from 3 to 15 cm, depending on the plant habit, and only then treated with the active compounds which had been suspended or emulsified in water. The test plants were for this purpose either sown directly and grown in the same containers, or they were first grown separately as seedlings and transplanted into the test containers a few days prior to treatment. The application rate for the post-emergence treatment was 0.25 or 0.125 kg of a.s. (active substance)/ha. Depending on the species, the plants were kept at 10-25° C. or 20-35° C. The test period extended over 2 to 4 weeks. During this time, the plants were tended, and their response to the individual treatments was evaluated. Evaluation was carried out using a scale from 0 to 100. 100 means no emergence of the plants, or complete destruction of at least the above-ground parts, and 0 means no damage, or normal course of growth. The plants used in the greenhouse experiments were of the following species: [table]

[2] = test system: Galium aparine
Text: as §1

[3] = test system: Chenopodium album
Text: as §1

[4] = test system: Amaranthus retroflexus
Text: as §1

Measured: post-emergence action

Cc1c(F)c(Oc2csc(C(F)(F)F)c2)nc(-n2ccc(C(F)(F)F)n2)c1F [compound 3.1, 3,5-Difluoro-4-methyl-2-(3-trifluoromethyl-1H-pyrazol-1-yl)-6-(5-trifluoromethyl-3-thienyloxy)pyridine]
very good: all assays above
